Source: publication PMC5218480 (PLoS ONE, 2017)

Tested on: MV-4-11 cells
Assay: Gene expression microarray analysis (Affymetrix PrimeView) and GSEA
Type: cell-based, human
Set-up: RFU PODN (11730768_x_at) / Fold change /veh PODN (11730768_x_at) / RFU LINC00158 (11744669_a_at) / Fold change /veh LINC00158 (11744669_a_at) / RFU DUSP10 (11751237_a_at) / Fold change /veh DUSP10 (11751237_a_at) / RFU ID3 (11757404_x_at) / Fold change /veh ID3 (11757404_x_at) / RFU PLEKHG5 (11737974_s_at) / Fold change /veh PLEKHG5 (11737974_s_at) / RFU LRRC4B (11730491_at) / Fold change /veh LRRC4B (11730491_at) / RFU GIMAP4 (11747438_a_at) / Fold change /veh GIMAP4 (11747438_a_at) / RFU KRT8 (11758183_x_at) / Fold change /veh KRT8 (11758183_x_at) / RFU CNN1 (11734310_a_at) / Fold change /veh CNN1 (11734310_a_at) / RFU VPS37D (11726825_at) / Fold change /veh VPS37D (11726825_at) / RFU C10orf10 (11716522_x_at) / Fold change /veh C10orf10 (11716522_x_at) / RFU KIR2DL2 /// KIR2DL4 /// KIR2DL5A /// KIR2DL5B /// KIR2DS1 /// KIR2DS2 /// KIR2DS3 /// KIR2DS4 /// KIR3DL3 /// KIR3DL3 /// KIR3DS1 (11738374_at) / Fold change /veh KIR2DL2 /// KIR2DL4 /// KIR2DL5A /// KIR2DL5B /// KIR2DS1 /// KIR2DS2 /// KIR2DS3 /// KIR2DS4 /// KIR3DL3 /// KIR3DL3 /// KIR3DS1 (11738374_at) / RFU C1QL1 (11718748_at) / Fold change /veh C1QL1 (11718748_at) / RFU TMPRSS4 (11747572_a_at) / Fold change /veh TMPRSS4 (11747572_a_at) / RFU HAMP (11756126_x_at) / Fold change /veh HAMP (11756126_x_at) / RFU RNFT2 (11725882_a_at) / Fold change /veh RNFT2 (11725882_a_at) / RFU NR4A2 (11747474_a_at) / Fold change /veh NR4A2 (11747474_a_at) / RFU ABCC12 (11746883_a_at) / Fold change /veh ABCC12 (11746883_a_at) / RFU TMEM136 (11760407_x_at) / Fold change /veh TMEM136 (11760407_x_at) / RFU CLDN22 /// WWC2 (11732394_at) / Fold change /veh CLDN22 /// WWC2 (11732394_at) / RFU HLA-DPB1 (11760878_x_at) / Fold change /veh HLA-DPB1 (11760878_x_at) / RFU SPINT1 (11716480_a_at) / Fold change /veh SPINT1 (11716480_a_at) / RFU GAP43 (11754022_s_at) / Fold change /veh GAP43 (11754022_s_at) / RFU A4GNT (11735810_at) / Fold change /veh A4GNT (11735810_at) / RFU PRB3 (11715151_x_at) / Fold change /veh PRB3 (11715151_x_at) / RFU TUBB4B (11761932_at) / Fold change /veh TUBB4B (11761932_at) / RFU CAPN14 (11732068_a_at) / Fold change /veh CAPN14 (11732068_a_at) / RFU TMCC2 (11721928_a_at) / Fold change /veh TMCC2 (11721928_a_at) / RFU IRGQ (11745062_a_at) / Fold change /veh IRGQ (11745062_a_at) / RFU FAM174B (11720279_a_at) / Fold change /veh FAM174B (11720279_a_at) / RFU TMPRSS4 (11748680_a_at) / Fold change /veh TMPRSS4 (11748680_a_at) / RFU FAM212B (11763350_a_at) / Fold change /veh FAM212B (11763350_a_at) / RFU PLEKHG5 (11743358_a_at) / Fold change /veh PLEKHG5 (11743358_a_at) / RFU ZSCAN30 (11745921_a_at) / Fold change /veh ZSCAN30 (11745921_a_at) / RFU CMKLR1 (11741424_a_at) / Fold change /veh CMKLR1 (11741424_a_at) / RFU LOC101060620 /// MAPK8IP1 (11723275_at) / Fold change /veh LOC101060620 /// MAPK8IP1 (11723275_at) / RFU SPTSSB (11747773_x_at) / Fold change /veh SPTSSB (11747773_x_at) / RFU PRSS12 (11739890_at) / Fold change /veh PRSS12 (11739890_at) / RFU BIN1 (11741810_x_at) / Fold change /veh BIN1 (11741810_x_at) / RFU WNT11 (11732464_a_at) / Fold change /veh WNT11 (11732464_a_at) / RFU C10orf10 (11716521_a_at) / Fold change /veh C10orf10 (11716521_a_at) / RFU C5orf56 (11738089_at) / Fold change /veh C5orf56 (11738089_at) / RFU CYB561 (11721691_x_at) / Fold change /veh CYB561 (11721691_x_at) / RFU ANKRD19P (11752326_a_at) / Fold change /veh ANKRD19P (11752326_a_at) / RFU OR2T12 /// OR2T33 /// OR2T8 (11738714_s_at) / Fold change /veh OR2T12 /// OR2T33 /// OR2T8 (11738714_s_at) / RFU VCAN (11748164_a_at) / Fold change /veh VCAN (11748164_a_at) / RFU JSRP1 (11732532_at) / Fold change /veh JSRP1 (11732532_at) / RFU KRTAP10-11 (11738290_x_at) / Fold change /veh KRTAP10-11 (11738290_x_at) / RFU MYO3A (11730013_a_at) / Fold change /veh MYO3A (11730013_a_at) / RFU EBF3 (11725865_a_at) / Fold change /veh EBF3 (11725865_a_at) / RFU CAMK2N1 (11719241_x_at) / Fold change /veh CAMK2N1 (11719241_x_at) / RFU C5orf56 (11738088_a_at) / Fold change /veh C5orf56 (11738088_a_at) / RFU OLFML3 (11715873_a_at) / Fold change /veh OLFML3 (11715873_a_at) / RFU LOC100653217 /// NTM (11731650_a_at) / Fold change /veh LOC100653217 /// NTM (11731650_a_at) / RFU MAPK11 (11762145_a_at) / Fold change /veh MAPK11 (11762145_a_at) / RFU FIZ1 (11724087_x_at) / Fold change /veh FIZ1 (11724087_x_at) / RFU OASL (11726364_x_at) / Fold change /veh OASL (11726364_x_at) / RFU SOX15 (11748057_x_at) / Fold change /veh SOX15 (11748057_x_at) / RFU CD79A (11719716_a_at) / Fold change /veh CD79A (11719716_a_at) / RFU HIST1H1D (11736915_at) / Fold change /veh HIST1H1D (11736915_at) / RFU CASKIN2 (11723855_a_at) / Fold change /veh CASKIN2 (11723855_a_at) / RFU LOC730098 (11760151_x_at) / Fold change /veh LOC730098 (11760151_x_at) / RFU OR4N2 (11742367_at) / Fold change /veh OR4N2 (11742367_at) / RFU PRRT2 (11749266_a_at) / Fold change /veh PRRT2 (11749266_a_at) / RFU SNX32 (11753110_a_at) / Fold change /veh SNX32 (11753110_a_at) / RFU CDHR5 (11726645_a_at) / Fold change /veh CDHR5 (11726645_a_at) / RFU RCAN1 (11760418_a_at) / Fold change /veh RCAN1 (11760418_a_at) / RFU FAM167A (11723789_a_at) / Fold change /veh FAM167A (11723789_a_at) / RFU FAM26E (11764081_at) / Fold change /veh FAM26E (11764081_at) / RFU ISYNA1 (11749810_s_at) / Fold change /veh ISYNA1 (11749810_s_at) / RFU ACY1 (11761880_at) / Fold change /veh ACY1 (11761880_at) / RFU 11764098_at / Fold change /veh 11764098_at / RFU SAMD14 (11745864_x_at) / Fold change /veh SAMD14 (11745864_x_at) / RFU NPB (11741838_a_at) / Fold change /veh NPB (11741838_a_at) / RFU TMPRSS6 (11731388_a_at) / Fold change /veh TMPRSS6 (11731388_a_at) / RFU KRTAP10-2 (11738614_at) / Fold change /veh KRTAP10-2 (11738614_at) / RFU ARHGAP8 /// PRR5-ARHGAP8 (11727945_x_at) / Fold change /veh ARHGAP8 /// PRR5-ARHGAP8 (11727945_x_at) / RFU KRTAP5-7 /// NADSYN1 (11734609_at) / Fold change /veh KRTAP5-7 /// NADSYN1 (11734609_at) / RFU RASL12 (11751679_a_at) / Fold change /veh RASL12 (11751679_a_at) / RFU CDKN2B (11736163_a_at) / Fold change /veh CDKN2B (11736163_a_at) / RFU PRF1 (11729649_at) / Fold change /veh PRF1 (11729649_at) / RFU, ZNF638 /// ZNF638-IT1 / Fold change vs veh, ZNF638 /// ZNF638-IT1 / RFU, PANK3 / Fold change vs veh, PANK3 / RFU, SH3YL1 / Fold change vs veh, SH3YL1 / RFU, ZEB2 / Fold change vs veh, ZEB2 / RFU, NRIP1 / Fold change vs veh, NRIP1 / RFU, PTTG1IP / Fold change vs veh, PTTG1IP / RFU, CAPN2 / Fold change vs veh, CAPN2 / RFU, MED14 / Fold change vs veh, MED14 / RFU, SNORA58 / Fold change vs veh, SNORA58 / RFU, C1orf63 / Fold change vs veh, C1orf63 / RFU, LRRFIP1 / Fold change vs veh, LRRFIP1 / RFU, NDUFAF7 / Fold change vs veh, NDUFAF7 / RFU, SLC12A2 / Fold change vs veh, SLC12A2 / RFU, IBTK / Fold change vs veh, IBTK / RFU, ESF1 / Fold change vs veh, ESF1 / Fold change vs veh, TMEM50B / RFU, TAOK1 / Fold change vs veh, TAOK1 / RFU, ACBD3 / Fold change vs veh, ACBD3 / RFU, TMA16 / Fold change vs veh, TMA16 / RFU, RWDD3 / Fold change vs veh, RWDD3 / RFU, BCAT1 / Fold change vs veh, BCAT1 / RFU, EDEM3 / Fold change vs veh, EDEM3 / RFU, TMEM33 / Fold change vs veh, TMEM33 / RFU, WDR75 / Fold change vs veh, WDR75 / RFU, AHCTF1 / Fold change vs veh, AHCTF1 / RFU, TFRC / Fold change vs veh, TFRC / RFU, ZDHHC17 / Fold change vs veh, ZDHHC17 / RFU, NOM1 / Fold change vs veh, NOM1 / RFU, ARL8B / Fold change vs veh, ARL8B / RFU, ZBTB11 / Fold change vs veh, ZBTB11 / RFU, TAMM41 / Fold change vs veh, TAMM41 / RFU, KIAA1704 /// LOC100996395 / Fold change vs veh, KIAA1704 /// LOC100996395 / RFU, ING1 / Fold change vs veh, ING1 / RFU, TRMT61B / Fold change vs veh, TRMT61B / RFU, FUBP3 / Fold change vs veh, FUBP3 / RFU, TP53 / Fold change vs veh, TP53 / RFU, TNKS2 / Fold change vs veh, TNKS2 / RFU, ZFP14 / Fold change vs veh, ZFP14 / RFU, ACTR2 / Fold change vs veh, ACTR2 / RFU, PPP3R1 / Fold change vs veh, PPP3R1 / RFU, PIK3R1 / Fold change vs veh, PIK3R1 / RFU, HNRNPA1 / Fold change vs veh, HNRNPA1 / RFU, RNF170 / Fold change vs veh, RNF170 / RFU, ZNF28 / Fold change vs veh, ZNF28 / RFU, RNGTT / Fold change vs veh, RNGTT / RFU, OGT / Fold change vs veh, OGT / RFU, BRD1 / Fold change vs veh, BRD1 / RFU, MARS / Fold change vs veh, MARS / RFU, ZNF655 / Fold change vs veh, ZNF655 / RFU, FAHD1 / Fold change vs veh, FAHD1 / RFU, BDP1 / Fold change vs veh, BDP1 / RFU, LRRCC1 / Fold change vs veh, LRRCC1 / RFU, ARID1A / Fold change vs veh, ARID1A / RFU, ZNF146 / Fold change vs veh, ZNF146 / RFU, ZNF330 / Fold change vs veh, ZNF330 / RFU, GPN3 / Fold change vs veh, GPN3 / RFU, C9orf123 / Fold change vs veh, C9orf123 / RFU, N4BP2L2 / Fold change vs veh, N4BP2L2 / RFU, ARFIP1 / Fold change vs veh, ARFIP1 / RFU, FAM179B / Fold change vs veh, FAM179B / RFU, BCL10 / Fold change vs veh, BCL10 / RFU, UHRF1BP1L / Fold change vs veh, UHRF1BP1L / RFU, BET1 / Fold change vs veh, BET1 / RFU, CNOT2 / Fold change vs veh, CNOT2 / RFU, ZNF268 / Fold change vs veh, ZNF268 / Fold change vs veh, ZNF507 / RFU, DGCR2 / Fold change vs veh, DGCR2 / RFU, WDSUB1 / Fold change vs veh, WDSUB1 / Fold change vs veh, HSP90B1 /// MIR3652 / RFU, ADSS / Fold change vs veh, ADSS / RFU, GK / Fold change vs veh, GK / RFU, ZNF148 / Fold change vs veh, ZNF148 / RFU, TAF9 / Fold change vs veh, TAF9 / RFU, SLC1A5 / Fold change vs veh, SLC1A5 / RFU, SLMO2 / Fold change vs veh, SLMO2 / RFU, ABCC4 / Fold change vs veh, ABCC4 / RFU, LOC101060439 /// RAP1B / Fold change vs veh, LOC101060439 /// RAP1B / RFU, RFX7 / Fold change vs veh, RFX7 / RFU, GTPBP10 / Fold change vs veh, GTPBP10 / RFU, CNEP1R1 / Fold change vs veh, CNEP1R1 / RFU, BIVM-ERCC5 /// ERCC5 / Fold change vs veh, BIVM-ERCC5 /// ERCC5 / RFU, ILF3 / Fold change vs veh, ILF3 / RFU 11762660_at / Fold change /veh 11762660_at / RFU VCAN (11757783_s_at) / Fold change /veh VCAN (11757783_s_at) / RFU DDX43 (11728927_at) / Fold change /veh DDX43 (11728927_at) / RFU KRT8 (11758188_x_at) / Fold change /veh KRT8 (11758188_x_at) / RFU NKD1 (11759106_at) / Fold change /veh NKD1 (11759106_at) / RFU SRD5A1 (11742802_a_at) / Fold change /veh SRD5A1 (11742802_a_at) / RFU TPSAB1 /// TPSB2 (11721975_s_at) / Fold change /veh TPSAB1 /// TPSB2 (11721975_s_at) / RFU GSTM3 (11746129_a_at) / Fold change /veh GSTM3 (11746129_a_at) / RFU IL23R (11737362_x_at) / Fold change /veh IL23R (11737362_x_at) / RFU TMEM51 (11727254_a_at) / Fold change /veh TMEM51 (11727254_a_at) / RFU PIWIL2 (11732686_x_at) / Fold change /veh PIWIL2 (11732686_x_at) / RFU ORM1 (11744905_x_at) / Fold change /veh ORM1 (11744905_x_at) / RFU CCDC152 (11743942_at) / Fold change /veh CCDC152 (11743942_at) / RFU ECM1 (11717891_a_at) / Fold change /veh ECM1 (11717891_a_at) / RFU IL23R (11748794_a_at) / Fold change /veh IL23R (11748794_a_at) / RFU TNFAIP8L3 (11732012_x_at) / Fold change /veh TNFAIP8L3 (11732012_x_at) / RFU MBOAT4 (11741988_at) / Fold change /veh MBOAT4 (11741988_at) / RFU 11764193_at / Fold change /veh 11764193_at / RFU TMEM53 (11763286_at) / Fold change /veh TMEM53 (11763286_at) / RFU MAGEB2 (11727129_at) / Fold change /veh MAGEB2 (11727129_at) / RFU TMEM200A (11744735_a_at) / Fold change /veh TMEM200A (11744735_a_at) / RFU CCDC152 (11751479_a_at) / Fold change /veh CCDC152 (11751479_a_at) / RFU FAM211A (11726209_a_at) / Fold change /veh FAM211A (11726209_a_at) / RFU RGS16 (11746705_a_at) / Fold change /veh RGS16 (11746705_a_at) / RFU VCAN (11755009_s_at) / Fold change /veh VCAN (11755009_s_at) / RFU RHOB (11743442_s_at) / Fold change /veh RHOB (11743442_s_at) / RFU RGS16 (11720943_a_at) / Fold change /veh RGS16 (11720943_a_at) / RFU RGS16 (11720944_at) / Fold change /veh RGS16 (11720944_at) / RFU, VPS4B / Fold change vs veh, VPS4B / RFU, CREB1 / Fold change vs veh, CREB1 / RFU, DNAJC13 / Fold change vs veh, DNAJC13 / RFU, GNAQ / Fold change vs veh, GNAQ / RFU, CDK5R1 / Fold change vs veh, CDK5R1 / RFU, ZRANB3 / Fold change vs veh, ZRANB3 / RFU, CUL4A / Fold change vs veh, CUL4A / RFU, CCNY / Fold change vs veh, CCNY / RFU, UFL1 / Fold change vs veh, UFL1 / RFU, COG3 / Fold change vs veh, COG3 / RFU, DIAPH2 / Fold change vs veh, DIAPH2 / RFU, SKA2 / Fold change vs veh, SKA2 / RFU, AFF3 / Fold change vs veh, AFF3 / RFU, LMF1 / Fold change vs veh, LMF1 / RFU, IPO11 / Fold change vs veh, IPO11 / RFU, DFFB / Fold change vs veh, DFFB / RFU, FOXP1 / Fold change vs veh, FOXP1 / RFU, CARD8 / Fold change vs veh, CARD8 / RFU, STRN3 / Fold change vs veh, STRN3 / RFU, ADK / Fold change vs veh, ADK / RFU, RASSF2 / Fold change vs veh, RASSF2 / RFU, WIPF1 / Fold change vs veh, WIPF1 / RFU, LARP1B / Fold change vs veh, LARP1B / RFU, RASA1 / Fold change vs veh, RASA1 / RFU, RB1 / Fold change vs veh, RB1 / RFU, PPFIA1 / Fold change vs veh, PPFIA1 / RFU, MAT2A / Fold change vs veh, MAT2A / RFU, CCT5 / Fold change vs veh, CCT5 / RFU, WDR92 / Fold change vs veh, WDR92 / RFU, CUX1 / Fold change vs veh, CUX1 / RFU, TTC7A / Fold change vs veh, TTC7A / RFU, TMEM135 / Fold change vs veh, TMEM135 / RFU, DEPTOR / Fold change vs veh, DEPTOR / RFU, CPM / Fold change vs veh, CPM / RFU, DNAJB6 / Fold change vs veh, DNAJB6 / RFU, CACNA2D3 / Fold change vs veh, CACNA2D3 / RFU, DTX4 / Fold change vs veh, DTX4 / RFU, TFCP2 / Fold change vs veh, TFCP2 / RFU, GMCL1 /// GMCL1P1 / Fold change vs veh, GMCL1 /// GMCL1P1 / RFU, AEBP2 / Fold change vs veh, AEBP2 / RFU, SNHG1 /// SNORD22 /// SNORD25 /// SNORD26 /// SNORD27 /// SNORD28 /// SNORD29 /// SNORD31 / Fold change vs veh, SNHG1 /// SNORD22 /// SNORD25 /// SNORD26 /// SNORD27 /// SNORD28 /// SNORD29 /// SNORD31 / Fold change (Aza/veh), C12orf56 (ProbeSet 11735607_a_at) / Fold change (ACY-1035/veh), C12orf56 (ProbeSet 11735607_a_at) / Fold change (Aza/veh), FGFR1OP (ProbeSet 11751329_s_at) / Fold change (ACY-1035/veh), FGFR1OP (ProbeSet 11751329_s_at) / Fold change (Aza/veh), VPS36 (ProbeSet 11739960_a_at) / Fold change (ACY-1035/veh), VPS36 (ProbeSet 11739960_a_at) / RFU SYPL1 (11715823_x_at) / Fold change /veh SYPL1 (11715823_x_at) / RFU IGFBP7 (11715501_s_at) / Fold change /veh IGFBP7 (11715501_s_at) / RFU REEP3 (11722064_at) / Fold change /veh REEP3 (11722064_at) / RFU IGLL1 (11728026_x_at) / Fold change /veh IGLL1 (11728026_x_at): dose or concentration left out as unconfirmed
Conditions: MV-4-11 cells, 48 hours

In the case of Nc1ccc(-c2cccs2)cc1NC(=O)c1ccc2c(c1)cc(C1CC1)n2CCN1CCOCC1 [ACY-1035], the “RFU IL23R (11737362_x_at)” value was 7.94 RFU.
